± gives the standard deviation of the averaged measurements.
Legend:
Test in all cases: level (log10 ratio to DMSO vehicle control); higher = higher biomarker level / cell amount than vehicle control
[1] = compound: O=C(O)C(F)(F)OC(F)(F)C(F)(F)OC(F)(F)C(F)(F)OC(F)(F)C(F)(F)C(F)(F)C(F)(F)F [Perfluoro-3,6,9-trioxatridecanoic acid] (in DMSO); settings: 6700 nM
Description: (§1)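 BioMAP Diversity Plus panel of 12 human primary cell co-culture systems (3C, 4H, LPS, SAg, BT, BF4T, BE3C, CASM3C, HDF3CGF, KF3CT, MyoF, Mphg). Compounds were added 1 h before stimulation and left for 24 h (MyoF 48 h; BT 72 h for soluble read-outs or 6 d for IgG). Biomarkers were read by ELISA, cytotoxicity by SRB, PBMC viability and proliferation by Alamar Blue. Each well value was divided by the mean of 8 DMSO control wells on the same plate and log10 transformed; duplicate blinded samples were tested at 4 concentrations.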

[2] = compound: OCC(F)(F)C(F)(F)C(F)(F)C(F)F [1H,1H,5H-Perfluoropentanol] (in DMSO)
Description: as §1

[3] = compound: C=C(C)C(=O)OCCC(F)(F)C(F)(F)C(F)(F)C(F)(F)C(F)(F)C(F)(F)C(F)(F)C(F)(F)F [8:2 Fluorotelomer methacrylate] (in DMSO)
Description: as §1

Perfluorononanoic acid = compound: O=C(O)C(F)(F)C(F)(F)C(F)(F)C(F)(F)C(F)(F)C(F)(F)C(F)(F)C(F)(F)F [Perfluorononanoic acid] (in DMSO)
Description: as §1

[4] = compound: CO[Si](C)(CCC(F)(F)C(F)(F)C(F)(F)C(F)(F)C(F)(F)C(F)(F)F)OC [Dimethoxymethyl((perfluorohexyl)ethyl)silane] (in DMSO)
Description: as §1

[5] = compound: NS(=O)(=O)C(F)(F)C(F)(F)C(F)(F)C(F)(F)C(F)(F)C(F)(F)C(F)(F)C(F)(F)F [Perfluorooctanesulfonamide] (in DMSO)
Description: as §1

[6] = compound: O=S(=O)(O)C(F)(F)C(F)(F)OC(F)(F)C(F)(F)F [Perfluoro(2-ethoxyethane)sulfonic acid] (in DMSO)
Description: as §1

[7] = compound: O=C(O)C(F)(OC(F)(F)C(F)(F)C(F)(F)F)C(F)(F)F [Ammonium perfluoro-2-methyl-3-oxahexanoate] (in Water)
Description: as §1

Row | Test System | level (log10) [1] | level (log10) ([2]; 6700 nM) | level (log10) ([2]; 20000 nM) | level (log10) ([2]; 60000 nM) | level (log10) ([3]; 6700 nM) | level (log10) ([3]; 20000 nM) | level (log10) (Perfluorononanoic acid; 6700 nM) | level (log10) (Perfluorononanoic acid; 20000 nM) | level (log10) ([4]; 6700 nM) | level (log10) ([4]; 20000 nM) | level (log10) ([5]; 6700 nM) | level (log10) ([5]; 20000 nM) | level (log10) ([6]; 6700 nM) | level (log10) ([6]; 20000 nM) | level (log10) ([6]; 60000 nM) | level (log10) ([7]; 6700 nM) | level (log10) ([7]; 20000 nM) | level (log10) ([7]; 60000 nM)
1 | HDF3CGF:TIMP-1 | -0.109 ± 0.088 | -0.012 ± 0.031 | -0.0155 ± 0.025 | 0.006 ± 0.027 | -0.0115 ± 0.036 | -0.0375 ± 0.074 | -0.0225 ± 0.026 | -0.039 ± 0.03 | -0.023 ± 0.027 | -0.0285 ± 0.022 | 0.065 ± 0.068 | -0.138 ± 0.15 | 0.0415 ± 0.067 | 0.048 ± 0.04 | 0.0955 ± 0.071 | 0.025 ± 0.0028 | 0.014 ± 0.024 | -0.0135 ± 0.0064
2 | HDF3CGF:TIMP-2 | -0.291 ± 0.005 | -0.0525 ± 0.086 | -0.0265 ± 0.067 | -0.0175 ± 0.087 | -0.001 ± 0.013 | -0.0395 ± 0.012 | 0.0105 ± 0.033 | 0.0805 ± 0.026 | 0.002 ± 0.027 | -0.03 ± 0.0014 | -0.0545 ± 0.0021 | -0.102 ± 0.044 | -0.011 ± 0.0099 | -0.0305 ± 0.015 | 0.02 ± 0.059 | 0.0405 ± 0.07 | 0.0435 ± 0.013 | -0.0185 ± 0.079
3 | KF3CT:CCL2/MCP-1 | -0.295 ± 0.023 | 0.0055 ± 0.026 | -0.0495 ± 0.087 | 0.007 ± 0.13 | -0.0235 ± 0.00071 | -0.008 ± 0.033 | -0.0975 ± 0.012 | -0.157 ± 0.03 | -0.0325 ± 0.0092 | 0.008 ± 0.059 | 0.025 ± 0.016 | 0.116 ± 0.037 | -0.0025 ± 0.013 | -0.002 ± 0.016 | 0.0115 ± 0.032 | 0.086 ± 0.0057 | 0.088 ± 0.023 | 0.0775 ± 0.018
4 | KF3CT:CD54/ICAM-1 | 0.019 ± 0.0042 | -0.002 ± 0.0071 | -0.003 ± 0.023 | 0.004 | -0.017 ± 0.013 | 0.004 ± 0.021 | -0.0235 ± 0.013 | -0.0455 ± 0.037 | -0.0135 ± 0.015 | 0.0145 ± 0.0078 | 0.0155 ± 0.023 | -0.0235 ± 0.028 | -0.002 ± 0.0099 | -0.0275 ± 0.0064 | -0.0165 ± 0.00071 | 0.022 ± 0.0099 | 0.029 ± 0.0071 | 0.017 ± 0.0057
5 | KF3CT:CXCL8/IL-8 | -0.047 ± 0.0042 | 0.0155 ± 0.016 | 0.0205 ± 0.021 | 0.0415 ± 0.049 | -0.013 ± 0.0071 | -0.0275 ± 0.015 | -0.0045 ± 0.016 | 0.013 ± 0.028 | -0.016 ± 0.0014 | 0.0035 ± 0.019 | -0.0135 ± 0.021 | -0.0525 ± 0.018 | 0.0305 ± 0.016 | 0.0045 ± 0.022 | 0.036 ± 0.016 | 0.0175 ± 0.036 | 0.0135 ± 0.00071 | 0.0165 ± 0.0092
6 | KF3CT:CXCL9/MIG | -0.0395 ± 0.042 | -0.009 ± 0.0085 | -0.006 ± 0.017 | 0.008 ± 0.023 | -0.0035 ± 0.0092 | 0.004 ± 0.0014 | -0.006 ± 0.027 | -0.007 ± 0.0042 | -0.004 | -0.005 ± 0.0028 | 0.0075 ± 0.0035 | -0.032 ± 0.034 | 0.0105 ± 0.0064 | -0.0015 ± 0.012 | 0.0155 ± 0.0021 | -0.007 ± 0.011 | 0.0025 ± 0.00071 | 0.0005 ± 0.0021
7 | KF3CT:CXCL10/IP-10 | -0.282 ± 0.12 | -0.0125 ± 0.033 | 0.0025 ± 0.00071 | 0.0365 ± 0.00071 | -0.0125 ± 0.0035 | -0.011 ± 0.0028 | -0.016 ± 0.018 | -0.0085 ± 0.021 | -0.0155 ± 0.0064 | -0.008 ± 0.0028 | -0.021 ± 0.0028 | -0.205 ± 0.0092 | 0.0025 ± 0.013 | -0.0075 ± 0.011 | -0.009 | -0.017 ± 0.0085 | 0.004 ± 0.0057 | 0.005 ± 0.0042
8 | KF3CT:IL-1alpha | -0.041 ± 0.03 | -0.0465 ± 0.05 | -0.0475 ± 0.056 | 0.0535 ± 0.025 | -0.0145 ± 0.036 | -0.028 ± 0.031 | -0.0365 ± 0.053 | -0.105 ± 0.043 | -0.032 ± 0.024 | -0.0065 ± 0.032 | 0.074 ± 0.0042 | -0.056 ± 0.02 | 0.0005 ± 0.0064 | -0.013 ± 0.025 | 0.0045 ± 0.05 | -0.001 ± 0.0071 | 0.011 ± 0.0014 | -0.0355 ± 0.044
9 | KF3CT:MMP-9 | -0.278 ± 0.039 | -0.024 ± 0.045 | -0.008 ± 0.0071 | 0.0125 ± 0.04 | -0.003 ± 0.023 | -0.014 ± 0.018 | -0.0575 ± 0.053 | -0.097 ± 0.034 | -0.008 ± 0.0014 | -0.0065 ± 0.016 | 0.0365 ± 0.026 | -0.274 ± 0.023 | 0.009 ± 0.0085 | 0.036 ± 0.016 | 0.0515 ± 0.00071 | -0.008 ± 0.011 | 0.0415 ± 0.026 | 0.0695 ± 0.0035
10 | KF3CT:PAI-I | -0.126 | 0.0105 ± 0.098 | 0.062 ± 0.035 | -0.0045 ± 0.011 | -0.022 ± 0.037 | -0.015 ± 0.013 | 0.065 ± 0.011 | -0.0095 ± 0.032 | 0.0045 ± 0.0064 | 0.009 ± 0.014 | 0.03 ± 0.027 | -0.108 ± 0.054 | -0.01 | -0.0145 ± 0.0078 | -0.009 ± 0.013 | -0.0455 ± 0.012 | -0.0695 ± 0.0078 | -0.054 ± 0.02
11 | KF3CT:SRB | -0.0355 ± 0.0035 | 0.003 ± 0.0028 | 0.0025 ± 0.0035 | 0.0025 ± 0.0035 | -0.003 | 0.004 ± 0.0042 | -0.011 ± 0.0057 | -0.0215 ± 0.0021 | -0.0045 ± 0.0064 | -0.004 ± 0.0028 | -0.0035 ± 0.015 | -0.0455 ± 0.029 | -0.0065 ± 0.00071 | -0.0035 ± 0.0035 | 0.007 ± 0.0099 | -0.004 | -0.005 ± 0.0014 | -0.0015 ± 0.005
12 | KF3CT:TIMP-2 | -0.172 ± 0.037 | -0.018 ± 0.013 | 0.025 ± 0.045 | 0.0285 ± 0.029 | -0.018 ± 0.014 | -0.0335 ± 0.033 | -0.074 ± 0.027 | -0.002 ± 0.045 | -0.004 ± 0.028 | 0.0035 ± 0.011 | -0.0275 ± 0.012 | -0.06 ± 0.021 | 0.0035 ± 0.0092 | 0.01 | 0.0155 ± 0.005 | -0.0005 ± 0.037 | -0.002 ± 0.025 | 0.022 ± 0.027
13 | KF3CT:uPA | 0.027 ± 0.0057 | 0.0035 ± 0.0092 | -0.0315 ± 0.03 | 0.0375 ± 0.005 | -0.0095 ± 0.00071 | -0.0205 ± 0.012 | 0.0005 ± 0.018 | 0.009 ± 0.011 | 0.0015 ± 0.0092 | -0.015 ± 0.0028 | 0.0165 ± 0.0064 | -0.093 ± 0.0014 | 0.013 ± 0.011 | 0.006 ± 0.021 | 0.0055 ± 0.022 | -0.0275 ± 0.043 | -0.009 ± 0.0099 | -0.0175 ± 0.019
14 | MyoF:CD106/VCAM-1 | -0.212 ± 0.048 | -0.02 ± 0.0099 | -0.0005 ± 0.035 | 0.0165 ± 0.015 | -0.0125 ± 0.012 | 0.002 ± 0.011 | -0.0475 ± 0.025 | -0.024 ± 0.016 | 0.003 ± 0.0042 | -0.008 ± 0.018 | -0.005 ± 0.023 | -0.293 ± 0.088 | 0.006 ± 0.013 | -0.0095 ± 0.015 | 0.013 ± 0.013 | 0.0105 ± 0.033 | 0.012 ± 0.011 | -0.011 ± 0.0099
15 | MyoF:CXCL8/IL-8 | 0.056 ± 0.0057 | -0.018 ± 0.076 | 0.0485 ± 0.064 | 0.07 ± 0.13 | 0.0095 ± 0.025 | 0.004 ± 0.0085 | -0.03 ± 0.079 | 0.0445 ± 0.044 | -0.016 ± 0.0014 | 0.0085 ± 0.036 | -0.04 ± 0.031 | -0.013 ± 0.0085 | 0.0095 ± 0.037 | 0.0225 ± 0.03 | 0.03 ± 0.024 | -0.0355 ± 0.032 | -0.0385 ± 0.011 | -0.045 ± 0.011
